Measured values as given in patent publication US11666558B2, “Methods of treating intraocular pressure with activators of Tie-2” (EyePoint Pharmaceuticals, Inc., priority 2015, dated 2023).
Like-named read-outs stand apart in the source and are kept apart here.

Test: Ocular tissue concentrations (aqueous humor, vitreous humor, iris, retina, choroid, cornea) after topical ocular, subcutaneous and intravitreal administration
Type: in vivo, New Zealand White rabbits
Settings: New Zealand White, rabbit; for concentration at 2 h / concentration at 4 h / concentration at 0.5 hr / concentration at 1 h: subcutaneous, 5 mg/kg/dose, subcutaneous 5 mg/kg/dose; for concentration at 6 h / concentration at 24 h / concentration at 48 h / concentration at 72 h: other: intravitreal, 2.5 mg/eye
Method: To measure the concentration of Compound 1 in plasma and ocular tissues following topical ocular, subcutaneous, and intravitreal administration, New Zealand White rabbits were administered Compound 1, and plasma and ocular samples were collected at pre-determined time points. Compound 1 formulations were prepared fresh on each day of dosing.
Ocular tissue samples from both eyes of each animal were collected and weights were recorded. Plasma and ocular tissue sample concentrations of Compound 1 were determined by LC-MS/MS.
New Zealand White rabbits weighing 2.5 to 3.5 kg were used on this study. Rabbits were housed one per cage. Animals were not fasted and only healthy animals with no ocular illness were used. Two rabbits per group were sacrificed at each of four ocular tissue sampling time points for a total of eight rabbits per group.
Animals were anesthetized for ocular (topical) and intravitreal dosing following the 12IA7 IACUC protocol. Each rabbit received a bolus dose of test formulation either via topical ocular administration 3 times daily on Days 1 and 2 (at 0, 6, and 12 hours), and once on Day 3 (at 0 hours) into both eyes; via intravitreal administration into both eyes once on Day 1 (at 0 hours); or via subcutaneous administration 2 times daily on Days 1 and 2 (at 0 and 8 hours) and once daily on Day 3 (at 0 hours). Doses were given within an approximately 1 hour window each day where applicable.
On Day 1, for intravitreal administration, or on Day 3, for topical ocular and subcutaneous administration, at the appropriate ocular tissue collection time points, animals were euthanized and both eyes were enucleated immediately. Following enucleation, each eye was rinsed with phosphate-buffered saline. Ocular tissue samples from both eyes of each animal were collected at predetermined time points and weights were recorded. All the samples were frozen immediately on dry ice, and stored at −60° C. to −80° C. pending bioanalysis.
An LC-MS/MS method was developed for the determination of Compound 1 in rabbit aqueous tissues (plasma, aqueous and vitreous humor) and solid ocular tissue samples. A pre-study standard curve was analyzed to determine the specificity, range, and lower limit of quantitation of the method. Plasma and tissue homogenate study samples were extracted and analyzed. All the samples were treated identically to the standards.
One eight-point standard curve was used in each analytical batch. To be accepted, each batch must have had at least five of eight standards with accuracy within ±20% of nominal, except at the lower limit of quantification (LLOQ), where ±25% was acceptable.
Concentration versus time data is plotted in FIGS. 3-16. All data are expressed as ng/g of the free drug. Samples that were below the limit of quantitation (0.2 ng/mL) were not used in the calculation of averages.

[1] = iris, TABLE 16: Iris, OD, free acid, Group 3, read-out: Iris Conc. (ng/g) OD
[2] = iris, TABLE 16: Iris, OS, free acid, Group 3, read-out: Iris Conc. (ng/g) OS
[3] = iris, TABLE 16: Iris, free acid, Group 3, read-out: Iris Average
[4] = retina homogenate, Retina homogenate, left eye, intravitreal 2.5 mg/eye (group 5), individual animals, read-out: Conc. (ng/mL) OS
[5] = retina homogenate, Retina homogenate, OD, sodium salt, intravitreal 2.5 mg/eye, Group 4, read-out: Retina Conc. (ng/mL) OD
[6] = retina homogenate, Retina homogenate, right eye, intravitreal 2.5 mg/eye (group 5), individual animals, read-out: Conc. (ng/mL) OD
[7] = retina homogenate, Retina homogenate, OS, sodium salt, intravitreal 2.5 mg/eye, Group 4, read-out: Retina Conc. (ng/mL) OS
[8] = retina homogenate, Retina homogenate, OD, sodium salt, Group 2, read-out: Retina Conc. (ng/mL) OD
[9] = retina homogenate, Retina homogenate, OS, sodium salt, Group 2, read-out: Retina Conc. (ng/mL) OS
[10] = retina homogenate, Retina homogenate, OD, free acid, Group 3, read-out: Retina Conc. (ng/mL) OD
[11] = retina homogenate, TABLE 16: Retina homogenate, OD, free acid, Group 3, read-out: Retina Conc. (ng/mL) OD
[12] = retina, Retina, OD, sodium salt, intravitreal 2.5 mg/eye, Group 4, read-out: Retina Conc. (ng/g) OD
[13] = retina, Retina, sodium salt, intravitreal 2.5 mg/eye, Group 4, read-out: Retina Avg.
[14] = retina, Retina, OS, sodium salt, intravitreal 2.5 mg/eye, Group 4, read-out: Retina Conc. (ng/g) OS

concentration at 2 h [1]: 30.5 ng/g | concentration at 2 h [2]: 29.5 ng/g | concentration at 2 h [3]: 27.6 ng/g | concentration at 4 h [1]: 26.5 ng/g | concentration at 4 h [2]: 16.9 ng/g | concentration at 4 h [3]: 17.5 ng/g | concentration at 6 h [4]: 154000 ng/mL | concentration at 24 h [5]: 29200 ng/mL | concentration at 24 h [6]: 130000 ng/mL | concentration at 48 h [5]: 6490 ng/mL | concentration at 48 h [7]: 6030 ng/mL | concentration at 48 h [6]: 66700 ng/mL | concentration at 72 h [5]: 750 ng/mL | concentration at 72 h [7]: 370 ng/mL | concentration at 72 h [4]: 10800 ng/mL | concentration at 72 h [6]: 9890 ng/mL | concentration at 0.5 hr [8]: 2.77 ng/mL | concentration at 0.5 hr [9]: 4.36 ng/mL | concentration at 1 h [10]: 0.942 ng/mL | concentration at 1 h [8]: 2.04 ng/mL | concentration at 1 h (retina homogenate, Retina homogenate, OS, free acid, Group 3, read-out: Retina Conc. (ng/mL) OS): 0.63 ng/mL | concentration at 1 h [9]: 3.93 ng/mL | concentration at 2 h [10]: 0.574 ng/mL | concentration at 2 h [8]: 1.36 ng/mL | concentration at 2 h [9]: 1.62 ng/mL | concentration at 4 h [8]: 1.79 ng/mL | concentration at 1 h [11]: 0.942 ng/mL | concentration at 1 h (retina homogenate, TABLE 16: Retina homogenate, OS, free acid, Group 3, read-out: Retina Conc. (ng/mL) OS): 0.63 ng/mL | concentration at 2 h [11]: 0.574 ng/mL | concentration at 6 h [12]: 431000 ng/g | concentration at 6 h [13]: 774000 ng/g | concentration at 24 h [12]: 321000 ng/g | concentration at 24 h [14]: 308000 ng/g | concentration at 24 h [13]: 356000 ng/g | concentration at 48 h [12]: 71400 ng/g | concentration at 48 h [14]: 66300 ng/g | concentration at 48 h (retina, Retina, average, intravitreal 2.5 mg/eye (group 5), read-out: Avg.): 680000 ng/g | concentration at 48 h (retina, Retina, left eye, intravitreal 2.5 mg/eye (group 5), individual animals, read-out: Conc. (ng/g) OS): 154000 ng/g | concentration at 48 h (retina, Retina, right eye, intravitreal 2.5 mg/eye (group 5), individual animals, read-out: Conc. (ng/g) OD): 734000 ng/g
Structure (SMILES): COC(=O)N[C@@H](Cc1ccccc1)C(=O)N[C@@H](Cc1ccc(NS(=O)(=O)O)cc1)c1csc(-c2cccs2)n1 [Compound 1]
